Each structure is given as a SMILES string. A value given as a limit tells only on which side of the number the result lay.

Data set [1] concerns Trypanosoma cruzi. The experiment in a line: Antitrypanosomal activity against trypomastigote form of Trypanosoma cruzi assessed as reduction in parasite growth. The class given is functional, organism-based.
Data set [2] has as its system Trypanosoma cruzi. The experiment in a line: In vivo antitrypanosomal activity against Trypanosoma cruzi infected in mouse assessed as fold reduction in parasitemia measured upto 30 days. Conditions: time <= 30 day. The class given is functional.
Data set [3] has as its system Trypanosoma cruzi. The experiment in a line: In vivo antitrypanosomal activity against Trypanosoma cruzi infected in mouse assessed as survival rate measured upto 50 days relative to control. The class given is functional. Conditions: time <= 50 day.
For data set [4], the system named is Trypanosoma cruzi. The experiment in a line: Antitrypanosomal activity against epimastigote form of Trypanosoma cruzi assessed as reduction in parasite growth. It is filed as functional, organism-based.
The test system of data set [5] is Leishmania mexicana. The experiment in a line: Antileishmanial activity against Leishmania mexicana promastigotes assessed as parasite growth inhibition. The class given is functional, organism-based.
For data set [6], the system named is Leishmania donovani. The experiment in a line: Antileishmanial activity against Leishmania donovani intracellular amastigotes assessed as parasite growth inhibition. It is filed as functional, organism-based.
In data set [7] the test system is Plasmodium berghei. In words: In vivo antimalarial activity against GFP-transfected Plasmodium berghei ANKA infected in NMRI mouse assessed as reduction of parasitaemia at 100 mg/kg/day, po for 4 days relative to control. It is filed as functional. The conditions noted are these: 96 h, time 4 day.
A short description of data set [8]: Selectivity index, ratio of IC50 for cytotoxicity against rat L6 cells to IC50 for antitrypanosomal activity against bloodstream form of Trypanosoma brucei rhodesiense. The class given is toxicity, cell-based. The conditions noted are these: read-out: Ratio IC50.
Data set [9] deals with Trypanosoma brucei rhodesiense. In words: Antitrypanosomal activity against bloodstream form of Trypanosoma brucei rhodesiense assessed as parasite growth inhibition. It is filed as functional, organism-based.
Data set [10] relates to Plasmodium berghei. The experiment in a line: In vivo antimalarial activity against GFP-transfected Plasmodium berghei ANKA infected in NMRI mouse assessed as reduction in parasitemia at 50 mg/kg/day, ip administered for 4 consecutive days relative to control. It is filed as functional.
Data set [11] can be described thus: Inhibition of Trypanosoma brucei CLK1.
Data set [12] relates to Trypanosoma brucei. The experiment in a line: Antitrypanosomal activity against bloodstream form of Trypanosoma brucei assessed as parasite growth inhibition. It is filed as functional, organism-based.
The test system of data set [13] is Trypanosoma brucei. In words: In vivo antitrypanosomal activity against Trypanosoma brucei infected in mouse assessed as cured animal rate at 10 mg/kg administered once daily for 7 days relative to control. It is filed as functional. Conditions: time 7 day.
Data set [14] deals with Leishmania donovani. The experiment in a line: Antileishmanial activity against amastigote form of Leishmania donovani assessed as parasite growth inhibition. The class given is functional, organism-based.
The nature of data set [15]: Selectivity index, ratio of CC50 for cytotoxicity against rat L6 cells to IC50 for antitrypanosomal activity against bloodstream form of Trypanosoma brucei rhodesiense. The class given is toxicity, cell-based. Conditions: read-out: Ratio CC50/IC50.
Data set [16] deals with Trypanosoma cruzi. In words: Antitrypanosomal activity against intracellular Trypanosoma cruzi amastigote assessed as reduction in parasite growth. The class given is functional, organism-based.
A short description of data set [17]: Selectivity index, ratio of CC50 for cytotoxicity against rat L6 cells to IC50 for […] activity against amastigote form of Leishmania donovani. The class given is toxicity, cell-based. The conditions noted are these: read-out: Ratio CC50/IC50.
The subject of data set [18] is Trypanosoma brucei. The experiment in a line: Antitrypanosomal activity against Trypanosoma brucei. It is filed as functional, organism-based.
In data set [19] the test system is Leishmania amazonensis. In words: Antileishmanial activity against Leishmania amazonensis promastigotes assessed as parasite growth inhibition. The class given is functional, organism-based.
The subject of data set [20] is Trypanosoma cruzi. The experiment in a line: In vivo antitrypanosomal activity against Trypanosoma cruzi infected in mouse assessed as survival rate measured upto 30 days relative to control. The class given is functional. Conditions: time <= 30 day.
Data set [21] has as its system Leishmania amazonensis. The experiment in a line: Antileishmanial activity against Leishmania amazonensis amastigotes assessed as parasite growth inhibition. It is filed as functional, organism-based.
Data set [22] is described as follows: Selectivity index, ratio of IC50 for cytotoxicity against human MRC5 cells to IC50 for antileishmanial activity against amastigote stage of Leishmania infantum. The class given is toxicity, cell-based. The conditions noted are these: read-out: Ratio IC50.
Data set [23] is described as follows: Selectivity index, ratio of IC50 for cytotoxicity against human MRC5 cells to IC50 for antitrypanosomal activity against intracellular Trypanosoma cruzi amastigote. It is filed as toxicity, cell-based. The conditions noted are these: read-out: Ratio IC50.
Data set [24] can be described thus: Selectivity index, ratio of IC50 for cytotoxicity against human MRC5 cells to IC50 for antitrypanosomal activity against bloodstream form of Trypanosoma brucei. The conditions noted are these: read-out: Ratio IC50. The class given is toxicity, cell-based.
Data set [25] deals with Leishmania infantum. The experiment in a line: Antileishmanial activity against amastigote stage of Leishmania infantum. It is filed as functional, organism-based.
For data set [26], the system named is Trypanosoma brucei brucei. In words: Antitrypanosomal activity against bloodstream form of Trypanosoma brucei brucei assessed as reduction in parasite growth. It is filed as functional, organism-based.
Data set [27] is described as follows: Selectivity index, ratio of CC50 for cytotoxicity against HEK293T cells to EC50 for antitrypanosomal activity against bloodstream form of Trypanosoma brucei brucei. It is filed as toxicity, cell-based. Conditions: human, read-out: Ratio CC50/EC50.
Data set [28] is described as follows: Selectivity index, ratio of CC50 for cytotoxicity against human HepG2 cells to EC50 for antitrypanosomal activity against bloodstream form of Trypanosoma brucei brucei. It is filed as toxicity, cell-based. Conditions: read-out: Ratio CC50/EC50.
Data set [29] concerns Trypanosoma cruzi (intracellular amastigotes). In words: Antiparasitic activity against Trypanosoma cruzi intracellular amastigotes assessed as reduction in cell viability at 50 uM relative to control.
For data set [30] the test system is unchanged. The data set is described as above. This is another data set of the same source.
For data set [31], the system named is Trypanosoma brucei rhodesiense. In words: Antitrypanosomal activity against Trypanosoma brucei rhodesiense bloodstream form.
In data set [32] the test system is Trypanosoma cruzi. In words: Antitrypanosomal activity against Trypanosoma cruzi amastigote. The class given is functional, organism-based. The conditions noted are these: Trypanosoma cruzi.
Data set [33] has as its system Leishmania amazonensis. In words: Antileishmanial activity against Leishmania amazonensis intracellular amastigotes assessed as parasite growth inhibition. It is filed as functional, organism-based.
The nature of data set [34]: Selectivity index, ratio of CC50 for cytotoxicity against mouse J774.G8 cells to IC50 for antileishmanial activity against Leishmania amazonensis promastigotes. The class given is toxicity, cell-based. Conditions: read-out: Ratio CC50/IC50.
Data set [35] in a line: Selectivity index, ratio of EC50 for cytotoxicity against African green monkey Vero cells to EC50 for antitrypanosomal activity against Trypanosoma brucei brucei. It is filed as toxicity, cell-based. Conditions: read-out: Ratio EC50.
Data set [36] is described as follows: Selectivity index, ratio of EC50 for cytotoxicity against African green monkey Vero cells to EC50 for antitrypanosomal activity against epimastigote form of Trypanosoma cruzi. It is filed as toxicity, cell-based. The conditions noted are these: read-out: Ratio EC50.
Data set [37] concerns Leishmania major. The experiment in a line: Antileishmanial activity against Leishmania major promastigotes assessed as parasite growth inhibition. It is filed as functional, organism-based.
The nature of data set [38]: Selectivity index, ratio of EC50 for cytotoxicity against African green monkey Vero cells to EC50 for antileishmanial activity against Leishmania major promastigotes. It is filed as toxicity, cell-based. Conditions: read-out: Ratio EC50.
In data set [39] the test system is Trypanosoma brucei brucei. In words: Antitrypanosomal activity against Trypanosoma brucei brucei. It is filed as functional, organism-based.
Data set [40] is described as follows: Selectivity index, ratio of IC50 for cytotoxicity against African green monkey Vero cells to IC50 for antitrypanosomal activity against Trypanosoma cruzi amastigote. It is filed as toxicity, cell-based. Conditions: read-out: Ratio IC50.
The nature of data set [41]: Selectivity index, ratio of IC50 for cytotoxicity against African green monkey Vero cells to IC50 for antileishmanial activity against amastigote form of Leishmania donovani. The class given is toxicity, cell-based. The conditions noted are these: read-out: Ratio IC50.

`C=C1C(=O)O[C@@H]2[C@H]1CC[C@H](C)[C@]1(CCC(=O)O1)[C@@]2(C)O` [PSILOSTACHYIN A]: the EC50 (commonly the concentration at which the effect is half-maximal) in [1] stood at 12.5 µM; in data set [4], 4.3 µM; in data set [5] it was 0.42 µM. Further, the “fold change (FC)” value in [2] was 1.5. Further, the Survival in [3] is on record as 100%.
Turning to `C=C(C)[C@H]1[C@H]2[C@@H](OC(C)=O)C[C@@H](C)[C@@H]3C(OC)C=C(C)[C@@]213` (stereo not given in full), in data set [6], the concentration giving a half-maximal response (EC50) amounted to 5 µM.
In the case of `O=C(O)c1ccc2c(n1)C(=O)C1=C(C2=O)S(=O)(=O)CCN1` [ACIDIATHIAZONE A], the inhibition in vivo – broadly, the change of the read-out against control, counted positive when it falls – at 100 mg/kg/day in data set [7] was 45%. The selectivity ratio in [8] worked out at 50. The EC50 in data set [9] was 3.1 µM. The inhibition in vivo at 50 mg/kg/day in [10] was 85%.
`COc1cc(O)c2c(c1)[C@H]1O[C@@H]1C[C@H](O)[C@H](O)C(=O)/C=C\C[C@H](C)OC2=O` [HYPOTHEMYCIN]: in [11], the midpoint of inhibition, the IC50, lay at 0.15 µM. Further, in data set [12], the EC50 is 0.17 µM. Further, in data set [13], the Activity stood at 33%.
Consider `NC1=N[C@]2([C@H](O)N1)[C@@H](Cl)[C@H](CCl)[C@H]1CN3C(=O)c4cc(Br)c(Br)n4[C@@H]4NC(N)=N[C@@]43[C@@H]12`, for which the values for the EC50 in data set [14], in data set [16] and in data set [9] were 1.9 µM, 120 µM and 0.8 µM, respectively. For the same compound, the selectivity ratio in data set [15] came out at 10; in data set [17], 4.
`C/C=C/[C@]1(C)C[C@@](/C=C(\C)C[C@@H](CC)CC/C=C/CC)(CC)OO1` returned an EC50 in [18] of 5 µM.
On to `C=C1C(=O)O[C@@H]2[C@H]1CC[C@H](C)[C@@H]1CCC(=O)O[C@@]21C`, for which the EC50 was 5.7 µM in [19], 3.4 µM in data set [16], 2.3 µM in data set [4] and 4.5 µM in [5]. Further, in [2], the “fold change (FC)” value is 2. In [20], the Survival is reported as 20%.
For the compound `CC(C)[C@@H](C)/C=C/[C@@H](C)[C@H]1CC[C@@H]2[C@]1(C)CC[C@H]1[C@]23C=C[C@]2(C[C@@H](O)CC[C@]12C)OO3` [ERGOSTEROL PEROXIDE], the EC50 in [19] was 13.9 µM; in data set [21] it was 4 µM; in [4], 16.8 µM.
For the compound `COc1c(O)cc2oc3cc(O)c(CC=C(C)C)c(O)c3c(=O)c2c1CC=C(C)C` [MANGOSTIN], the selectivity ratio in data set [22] came out at 0.93; in data set [23], 0.84; in [24] it was 0.95. The EC50 in data set [16] came out at 8.9 µM; in data set [12] it was 7.9 µM; in data set [25] it was 8 µM.
Take `C=C1CO[C@H]2/C=C(\C)CC[C@@H]3O[C@@]3(C)CC/C=C(\C)CC[C@@]12O`: in data set [26], the EC50 was 5.3 µM. The selectivity ratio in data set [27] and in data set [28] was greater than 20 in each case. Also, the Activity in data set [29] and in data set [30] was 15.2% in each case.
Turning to `Cn1c2nc3ccccc3c-2cc2ccccc21` [NEOCRYPTOLEPINE], the 50% effective concentration (EC50) was determined as 49.5 µM in data set [14], 2.2 µM in data set [31] and 2 µM in data set [32].
For the compound `C=C1CC[C@@H](OC(C)=O)[C@H]2CC=C3[C@](C)(CC[C@]3(O)C(C)C)C[C@]12O`, the EC50 is 5.5 µM in data set [19] and 18 µM in data set [33]. In data set [34], the selectivity ratio was 93.
As to `CCOC1C[C@H](CCCCOCc2ccccc2)O[C@H](Cn2cc([C@@H]3CCC[C@H](CCCCOCc4ccccc4)O3)nn2)C1` (stereo not given in full), the selectivity ratio worked out at 100 in data set [35], 39 in data set [36] and 33 in data set [38]. The EC50 in [37] is 15.3 µM; in data set [39], 5.1 µM; in data set [4], 12.7 µM.
On to `C/C1=C/C(=O)O[C@H](C(C)(C)C)CCC[C@H](O)CCC[C@H](O)CCC[C@H](O)CCC[C@@H](O)C[C@@H](O)C[C@H](O)CCC[C@@H](O)CCC[C@@H](O)C[C@@H](O)CCCCC1`, for which the EC50 in data set [14] turned out to be 3 µM; in data set [16], 6.5 µM. Also, the figures for the selectivity ratio in data set [40] and in data set [41] were 2 and 1, respectively.

The values above are taken from ChEMBL document CHEMBL5257038, “Active Natural Product Scaffolds against Trypanosomatid Parasites: A Review” (J Nat Prod, 2018).
